The text below walks through data of PMC7725003, “Systematically Studying the Optimal Amino Acid Distribution Patterns of the Amphiphilic Structure by Using the Ultrashort Amphiphiles” (Frontiers in Microbiology, 2020).

Where no end group is shown, it is not given here. Where only a bound is given, the exact number is not on record here.

The test system of assay [1] is all of the tested bacterial strains. In words: Geometric mean of MICs, all tested bacterial strains. The conditions noted are these: for GM, All: geometric mean of MICs across all tested strains; for TI, All: therapeutic index TI = MHC/GM MIC. The assay is classed as cell-based. The gist of the method: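 Mid-log bacteria at 0.5–1 × 10^6 CFU mL^–1 in MHB with peptides serially diluted in 0.2% BSA, 24 h at 37°C. MIC is the lowest concentration giving 95% growth inhibition by A492. MBC is the lowest giving >99.9% kill on agar subculture, and the GM is taken over all strains.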

For assay [2], the system named is E. coli ATCC 25922. The assay can be described thus: Outer membrane permeabilization (NPN uptake). The conditions noted are these: at 16 μM peptide. In kind it is cell-based, Escherichia coli. How it is done: Mid-log phase E. coli ATCC 25922 cells (OD600 = 0.2) were incubated with NPN (10 μM) in 5 mM HEPES buffer (pH 7.4, containing 5 mM glucose) for 30 min. The background fluorescence was recorded for subtraction (excitation λ = 350 nm, emission λ = 420 nm) with an F-4500 fluorescence spectrophotometer (Hitachi, Japan). Subsequently, 100 μL of cell suspension was mixed with equal volumes of the peptide solution at concentrations that ranged from 1 to 64 μM in a sterile 96-well black plate. The fluorescence was recorded over time until no further fluorescence increase was detectable. Each test was performed independently in triplicate, and the results were converted to the percentage of NPN uptake using the equation:
where Fobs is the observed fluorescence at a given peptide concentration, F0 is the initial fluorescence of NPN with microbial cells in the absence of peptide, and F100 is the fluorescence of NPN with microbial cells upon the addition of 10 μg/mL polymyxin B (Sigma) (for bacteria) as a positive control.

For another assay, the system named is Gram-positive bacteria. The following applies: geometric mean of MBCs, 7 Gram-positive strains (Table 2).
For a further assay, the system named is S. aureus 29213. In words: Time-kill kinetics. The assay is classed as cell-based, Staphylococcus aureus. The conditions noted are these: 1 × MIC concentration (Figure 5 legend: 1× MBC); mean of three independent experiments. An excerpt: The kinetics of the sterilization activity of the peptide was further evaluated. […] The results of the kinetic were the mean values of three independent experiments, and each independent experiment contained three technical replicates.

The subject of another assay is Gram-negative bacteria. The following applies: geometric mean of MBCs, 9 Gram-negative strains (Table 2).
The next assay concerns E. coli O78. In kind it is cell-based, Escherichia coli. The following applies: O78, 24 h. The gist of the method:
(§1)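 Modified NCCLS broth microdilution: mid-log bacteria diluted in MHB to 0.5–1 × 10^6 CFU mL^–1, mixed with peptides serially diluted in 0.2% BSA, incubated 24 h at 37°C. MIC taken as lowest concentration inhibiting 95% of growth by absorbance at 492 nm.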

In another assay the test system is E. coli UB1005. In kind it is cell-based, Escherichia coli. The conditions noted are these: UB1005, 24 h. The gist of the method:
as §1

The next assay has as its system E. coli 25922. In kind it is cell-based, Escherichia coli. The conditions noted are these: 25922, 24 h. The gist of the method:
as §1

Another assay deals with E. coli K99. The gist of the method:
(§2)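 Peptides were serially diluted in 0.2% BSA and added to mid-logarithmic cells diluted in MHB to 0.5–1 × 10^6 CFU mL^–1. Assays followed an adapted NCCLS protocol.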

For the next assay, the system named is E. coli K88. The gist of the method:
as §2

The test system of another assay is P. aeruginosa ATCC 27853. In kind it is cell-based, Pseudomonas aeruginosa. The following applies: after 30 sequential passages in sub-MBC concentrations. As to the method: Finally, P. aeruginosa ATCC 27853 was used as the model of the drug resistance study. […] The MBC values of the drugs against every two passage’s cells were tested. As a control, MBCs were also tested using cells that were serially passaged in fresh MHB without drugs. The assay was conducted independently in triplicate with three biological replicates.

The subject of another assay is E. faecalis 29212. The assay is classed as cell-based, Enterococcus faecalis. The following applies: 29212, 24 h. The gist of the method: as §1
The subject of another assay is B. subtilis 63501. The assay is classed as cell-based, Bacillus subtilis. The conditions noted are these: 63501, 24 h. The method in brief: as §1
Assay [3] relates to E. coli ATCC 25922. In words: Cytoplasmic membrane depolarization (DiSC3-5). The following applies: DiSC3-5 release, at all concentrations. In kind it is cell-based, Escherichia coli. As to the method: Mid-log phase E. coli ATCC 25922 cells (OD600 = 0.05) were incubated with 0.4 μM DiSC3-5 and 100 mM K ^+ in 5 mM HEPES buffer (pH 7.4, containing 20 mM glucose) until a steady decrease in fluorescence was achieved. The background fluorescence (excitation λ = 622 nm, emission λ = 670 nm) was recorded with an F-4500 fluorescence spectrophotometer (Hitachi, Japan). Subsequently, 2 mL of the cell suspension was added to a 1-cm quartz cuvette and mixed with various concentrations of peptide. The change in fluorescence in C-1, C-2, and C-3 was recorded from 0 to 1,000, 2,000, and 2,500 s, respectively.

Setting [4] is: MHB, 24 h 37°C, 95% growth inhibition.
[5] abbreviates: value in brackets, >99.9% of cells killed.

As to RLRLRLRLL-NH2 [L5], the “GM, All” value in [1] turned out to be 4.18 µM. Moreover, in assay [1], the “TI, All” value is listed as 61.24. Moreover, in the assay on E. coli ATCC 25922 [2], the “outer membrane permeabilization (NPN uptake)” value was “approximately 50%”. Also, the “GM MBC” value with Gram-positive bacteria came to 11.89 µM; with Gram-negative bacteria it was 6.35 µM. For the same substance, the “time to clear off the growth of 99.99% of bacteria” value in the assay on S. aureus 29213 is given as at most 0.08 min. The MBC against E. coli O78 stood at 4 µM; against E. coli UB1005, 8 µM; against E. coli 25922, 4 µM; against E. coli K99 (setting [5]) it was 8 µM; against E. coli K88 (setting [5]), 4 µM; against E. faecalis 29212 it was 32 µM. In the assay on B. subtilis 63501, this substance had an MBC of 2 µM. For the same substance, the MIC in the assay on E. coli O78 came to 2 µM; against E. coli UB1005 it was 4 µM; with E. coli 25922, 2 µM; in the assay on E. coli K99 (setting [4]), 4 µM; against E. coli K88 (setting [4]) it was 2 µM; in the assay on E. faecalis 29212, 16 µM. Also, the MIC against B. subtilis 63501 is 1 µM. In addition, the resistance development result in the assay on P. aeruginosa ATCC 27853 is “minimal”.

Consider RWRWRWRWW-NH2 [W5], for which the “GM, All” value in assay [1] was 2.38 µM. Further, the “TI, All” value in assay [1] is reported as 107.56. Besides, in the assay on E. coli ATCC 25922 [2], the “outer membrane permeabilization (NPN uptake)” value is “approximately 100%”. Besides, in the assay with E. coli ATCC 25922 [3], the “time to cytoplasmic membrane depolarization / highest fluorescence intensity” value is recorded as at most 300 s. Also, the “time to clear off the growth of 99.99% of bacteria” value in the assay with S. aureus 29213 was at most 3 min. In addition, the minimum bactericidal concentration (MBC) worked out at 8 µM in the assay on E. coli O78; 4 µM against E. coli UB1005; 4 µM in the assay on E. coli 25922; 8 µM against E. faecalis 29212; 2 µM against B. subtilis 63501. In addition, the MIC against E. coli O78 was found to be 4 µM; against E. coli UB1005, 2 µM; in the assay with E. coli 25922 it was 2 µM; against E. faecalis 29212, 4 µM; against B. subtilis 63501 it was 1 µM. For the same substance, the resistance development entry with P. aeruginosa ATCC 27853 is listed as “minimal”.
